The text below walks through data of US9464291B2, “Methods and compositions for the treatment of cancer” (University of South Alabama, priority 2012, dated 2016).

Assay [1] relates to OPN, MMP9, Cathepsin K (CTSK). The experiment in a line: OPN, MMP9 and CTSK expression by osteoclasts. The following applies: DM supplemented with cyclopamine. In kind it is cell-based, murine. An excerpt: Quantitative RT-PCR (qRT-PCR)-cDNA was generated using High Capacity Reverse Transcriptase Kit (Applied Biosystems, Foster City, Calif.). […] All reactions were done in triplicate.

For the next assay, the system named is Shh, Ihh. Briefly: Shh and Ihh protein levels in A2780-CP70 cells. In kind it is cell-based, human. To be noted: cyclopamine-treated. As to the method: SHH and IHH protein levels were assessed in cyclopamine-treated A2780-CP70 cells by Western blot analysis. Referring to FIG. 28, SHH protein (51 kDa) was detected in cytoplasmic fractions, but not nuclear fractions of treated cells at 0 hr. […] At 48 hr, SHH protein levels were prominent in cytoplasmic and nuclear fractions, and remained prominent through 72 hr. Referring to FIG. 29, IHH protein (45 kDa) was detected in cytoplasmic and nuclear fractions of treated cells at 0 hr. At 6 hr, IHH protein levels were more prominent in nuclear fractions than in cytoplasmic fractions. At 24 hr, IHH protein levels were low in both nuclear and cytoplasmic fractions. However, at 48 hr IHH protein levels increased in nuclear fractions through to 72 hr. IHH was only weakly present in the cytoplasmic fractions between 48-72 hr. […] After 24 hr SHH and IHH protein levels were similar in nuclear and cytoplasmic fractions. SHH and IHH protein levels rebounded by 48 hr and 72 hr.
The effects of an IC50 dose of anti-Gli1 shRNA on cisplatin-sensitive A2780 cells and cisplatin-resistant A2780-CP70 cells were assessed. Cisplatin-sensitive A2780 cells and cisplatin-resisitant A2780-CP70 cells were treated with 2.0 μg/ml shRNA per 200 microliter well anti-Gli1 shRNA. Protein levels of Gli1, Gli2, c-jun, Shh, Ihh, and GAPDH (control) were measured. […]

A further assay has as its system c-fos. The experiment in a line: c-fos mRNA (semi-quantitative PCR) and protein in A2780-CP70 cells. In kind it is cell-based, human.
Another assay deals with MC3T3-E1 cells. The experiment in a line: Osteoblast differentiation (ALP) and mineralization (Alizarin Red S), MC3T3-E1. In kind it is cell-based, murine. The following applies: 100 nM ligand in DM. Here is the method: The procedure for differentiation of osteoblasts was standardized. MC3T3-E1 cells were cultured in the presence of ascorbic acid and β-glycerophosphate. Mineralization was examined by Alizarin RedS staining (Ueno, A., et al. (2001). Matrix Biol 20, 347-355; Lee, Y. K., et al. (2004). J Biomed Mater Res A 69, 188-195; Duarte, W. R., et al. (2003). S100A4: a novel negative regulator of mineralization and osteoblast differentiation. J Bone Miner Res 18, 493-501). Referring to FIG. 13 and FIG. 14, differentiation was evident by intense red staining in presence of differentiation medium and in differentiation medium containing SHH compared to the control, growth medium. This was also evident in the intensity of absorbance and in the numbers of mineralized nodules formed (counted under the microscope) (FIG. 15).
Induction of osteoblastic and osteoclastic differentiation—In order to test the effect of conditioned medium from the tumor cells on osteoblast differentiation, a double-strength differentiation medium (DM) was formulated for MC3T3 E1 Sc-14 cells. […] Osteoblast differentiation was assessed by alkaline phosphatase (ALP) activity assay in the perspective of total phosphatase. The functional assessment of osteoblast mineralization was quantified by staining with Alizarin Red S and scoring the number of mineralized nodules.

For `CC1=C2C[C@H]3[C@@H](CC=C4C[C@@H](O)CC[C@@]43C)[C@@H]2CC[C@]12O[C@@H]1C[C@H](C)CN[C@H]1[C@H]2C` [cyclopamine], in assay [1], the “expression of OPN, MMP9 and CTSK by the osteoclasts” value is “significantly reduces the expression of OPN, MMP9 and CTSK”. Further, the “SHH and IHH protein levels” value with Shh, Ihh was “reduced at 24 hr”. In the assay on c-fos (70 μM cyclopamine, vs 0 hr), the “c-fos mRNA peak level” value is listed as 27 fold. Besides, the c-fos protein level entry in the assay on c-fos (A2780-CP70, cyclopamine-treated) is reported as “increased substantially at 6 hr”.

For “SHH: recombinant Sonic hedgehog ligand (R & D Systems)”, the “osteoblast differentiation (ALP activity)” value in the assay on MC3T3-E1 cells was “stimulated differentiation”. Besides, in the assay on MC3T3-E1 cells (14 days), the “numbers of mineralized nodules” value is on record as “significant increase (p<0.05)”.
